Measurements reported in patent publication US9783574B2, “Cardiovascular therapeutics” (Otago Innovation Limited, priority 2011, dated 2017).
No end group written: not given here.

Columns and labels:
[1] = in vivo; conditions: sheep, iv
Description: In this set of experiments, four normal healthy sheep were infused with human BNPsp(17-26) at 100-1000 ug/kg·min−1 to document any effects upon normal blood pressure, heart rate or renal function. This experiment was carried out to determine achieved circulating levels of BNPsp(17-26) in response to the dose given and to document any significant effects upon haemodynamic, renal or hormonal indices.

[2] = tested on: normal, healthy sheep; conditions: in vivo
Excerpt: Such a response is indicative of a well tolerated agent. […] This is a favourable profile in normal health.

[3] = tested on: isolated rat heart; assay: Modified BNPsp peptides, preconditioning in isolated rat heart (Example 6: 40 min global ischemia, 90 min reperfusion); conditions: preconditioned 30 minutes with 0.3 nmol/L; n=3
Description: This set of experiments assessed modified BNPsp(17-26) peptides. This experiment repeated the preconditioning work outlined in the isolated rat heart model Examples, but with C-terminal ablated and an N-terminal extended version of BNPsp(17-26). Hearts were preconditioned with 30 minute doses of 0.3 nmol/L BNPsp(16-26) and BNPsp(17-24) prior to 40 minutes of global ischemia and 90 minutes reperfusion. Cardiac contractile and perfusion pressure indices were recorded.

LHLAFLGGRS [BNPsp(17-26), LHLAFLGGRS]
half-life [1]: < 1 min | haemodynamics, renal function or circulating biomarkers [2]: no detectable changes

LHLAFLGG (listed as Homo sapiens) [BNPsp(17-24), modified peptide with two C-terminal amino acids removed]
haemodynamic protective profile (developed pressure) [3]: protective effect
